# Test results from article PMC7077750 (Journal of medicinal chemistry, 2020).
# Like-named read-outs stand apart in the source and are kept apart here.
# Assays:
# [1] = system: C57BL/6 mice; settings: orthosteric agonist at 10 mg/kg; cited from earlier work
# [2] = system: C57BL/6 mice; settings: orthosteric agonist at 10 mg/kg; cited from earlier work; remark: listed apart in the source
# [3] = system: CFA-induced mechanical allodynia; settings: same CFA model; cited from earlier work
# [4] = biological target: T1, hCB1R (Homo sapiens, UniProt P21554); assay: DiscoveRx HitHunter cAMP inhibition assay; settings: for PAM bias between cAMP inhibition and βarrestin2 recruitment (ΔΔLogR): 100 nM CP55,940 as agonist; for PAM bias between cAMP inhibition and βarrestin2 recruitment (ΔΔLogR) / agonist bias between cAMP inhibition and βarrestin2 recruitment (ΔΔLogR): 90 min, operational model; for agonist bias between cAMP inhibition and βarrestin2 recruitment (ΔΔLogR): GAT compound alone
# [5] = physchem; settings: pH 7.4
# [6] = system: C57BL/6 mice; assay: Triad assessment: warm water tail-flick test; settings: 0.1-10 mg/kg i.p.; 20 min; significant vs vehicle at 3 and 10 mg/kg
# [7] = system: C57BL/6 mice; assay: Triad assessment: body temperature; settings: 0.1, 1, 3, or 10 mg/kg (i.p.); 15 min; vs vehicle
# [8] = biological target: GFP-rCB1R (Rattus norvegicus, UniProt P20272); assay: cAMP inhibition; format: cell-based; settings: for ΔEC50 / ΔEMax: difference between CP55,940 alone and maximal concentration of GAT compound
# [9] = biological target: T1, hCB1R; assay: DiscoveRx PathHunter βarrestin2 recruitment assay; settings: for concentrations promoting CP55,940-dependent βarrestin2 recruitment: 100 nM CP55,940, 90 min
# [10] = system: C57BL/6 mice; assay: Triad assessment: catalepsy; settings: 0.1, 1, 3, or 10 mg/kg (i.p.); 5 min; vs vehicle
# [11] = system: CFA-induced mechanical allodynia; assay: CFA-induced inflammatory nociception, mechanical allodynia; format: in vivo, mouse; settings: for mechanical paw withdrawal threshold at 30 min post-injection: CFA-injected paw; for mechanical paw withdrawal threshold at 30 min post-injection / anti-allodynic efficacy at 4 h post injection: vs vehicle; for duration of efficacy post injection / suppression of CFA-induced mechanical allodynia in CB1KO mice: ipsilateral paw; for paw withdrawal thresholds in the contralateral paw: 0.1-30 mg/kg i.p.; for doses that elevated mechanical paw withdrawal thresholds relative to vehicle: CFA-injected (ipsilateral) paw, WT mice
# [12] = system: normotensive C57Bl/6J mice; settings: cited from earlier work
# [13] = system: ocular hypertensive NEE mice; assay: Intraocular pressure in ocular hypertensive NEE mice; settings: topical 0.2% 9j alone
# [14] = system: autaptic hippocampal neurons; assay: Electrophysiology in autaptic hippocampal neurons; settings: after 9j treatment
# Sequence of GFP-rCB1R (P20272 whole entry): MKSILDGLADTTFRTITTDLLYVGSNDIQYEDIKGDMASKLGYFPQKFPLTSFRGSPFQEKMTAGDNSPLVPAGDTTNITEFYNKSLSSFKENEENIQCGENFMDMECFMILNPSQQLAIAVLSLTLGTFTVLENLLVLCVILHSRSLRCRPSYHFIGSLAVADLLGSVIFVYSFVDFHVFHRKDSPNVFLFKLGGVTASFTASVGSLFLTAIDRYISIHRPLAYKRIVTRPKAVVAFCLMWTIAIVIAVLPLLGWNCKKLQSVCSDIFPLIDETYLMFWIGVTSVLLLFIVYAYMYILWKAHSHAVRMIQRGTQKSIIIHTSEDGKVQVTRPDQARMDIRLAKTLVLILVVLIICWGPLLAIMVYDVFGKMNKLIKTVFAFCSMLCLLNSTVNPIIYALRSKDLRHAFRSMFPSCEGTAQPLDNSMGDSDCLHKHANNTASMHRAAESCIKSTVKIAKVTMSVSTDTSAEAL
# T1 sequence (P21554 whole entry): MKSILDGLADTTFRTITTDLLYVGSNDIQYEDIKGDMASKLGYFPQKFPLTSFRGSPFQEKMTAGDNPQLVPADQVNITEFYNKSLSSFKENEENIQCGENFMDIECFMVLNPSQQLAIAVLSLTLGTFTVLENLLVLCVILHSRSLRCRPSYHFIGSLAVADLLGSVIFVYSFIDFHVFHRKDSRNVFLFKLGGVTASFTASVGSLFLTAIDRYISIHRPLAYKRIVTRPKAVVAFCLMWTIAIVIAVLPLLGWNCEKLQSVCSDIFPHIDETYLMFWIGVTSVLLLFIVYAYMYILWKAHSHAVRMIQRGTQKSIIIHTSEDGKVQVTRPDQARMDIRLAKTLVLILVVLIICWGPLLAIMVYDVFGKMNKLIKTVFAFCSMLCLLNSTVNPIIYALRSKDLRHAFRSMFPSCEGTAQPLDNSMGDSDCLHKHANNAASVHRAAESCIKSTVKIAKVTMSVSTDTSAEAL
structure (smiles),measurement,setting,value
"CCCCCc1cc(O)c2c(c1)OC(C)(C)[C@@H]1CCC(C)=C[C@@H]21 [THC, Δ[9]-tetrahydrocannabinol]",catalepsy,[1],significant catalepsy
same,hypothermic effects,[2],hypothermic effects
"O=[N+]([O-])CC(c1ccccc1)c1c(-c2ccccc2)[nH]c2ccccc12 (centres unmarked) [Compound 6d, 3-(2-Nitro-1-phenylethyl)-2-phenyl-1H-indole]",anti-allodynic efficacy at 1.5 h,[3],present
same,anti-allodynic efficacy at […] post injection,[3],absent
same,time of maximal anti-allodynic efficacy post-injection,[3],30 min
same,Emax,"[4]; read-out: cAMP EMax, PAM activity, CP55,940 at EC20 + analog, 30 min, mean ± SEM",110 ± 6.8%
"O=[N+]([O-])CC(c1ccncc1)c1c(-c2ccccc2)[nH]c2ccccc12 (centres unmarked) [Compound 9c, 3-(2-Nitro-1-(pyridin-4-yl)ethyl)-2-phenyl-1H-indole]",solubility thermodynamic,[5],12.6 µg/mL
"O=[N+]([O-])CC(c1ccccc1)c1c(-c2ccccc2)[nH]c2cccnc12 (centres unmarked) [Compound 9f, 3-(2-Nitro-1-phenylethyl)-2-phenyl-1H-pyrrolo[3,2-b]pyridine]",solubility thermodynamic,[5],3.8 µg/mL
"O=[N+]([O-])CC(c1ccccc1F)c1c(-c2cccc(F)c2)[nH]c2c(F)cccc12 (centres unmarked) [Compound 6s, 7-Fluoro-2-(3-fluorophenyl)-3-(1-(2-fluorophenyl)-2-nitroethyl)-1H-indole]",anti-nociceptive effect in the tail flick assay,[6],dose-dependent anti-nociceptive effect
same,hypothermia,[7],did not produce catalepsy or hypothermia
same,ΔEC50,[8],-12 ± 8.0 nM
same,ΔEMax,[8],67 ± 15 % Forskolin
same,"concentrations promoting CP55,940-dependent βarrestin2 recruitment",[9],≥ 3.5 µM
same,catalepsy,[10],did not produce catalepsy
same,PAM bias between cAMP inhibition and βarrestin2 recruitment (ΔΔLogR),[4],display bias toward cAMP inhibition
same,agonist bias between cAMP inhibition and βarrestin2 recruitment (ΔΔLogR),[4],agonist bias toward cAMP inhibition
same,antinociceptive efficacy compared with 6r at […] post injection,[11]; 30 mg/kg i.p.,greater antinociceptive efficacy than 6r
same,mechanical paw withdrawal threshold at 30 min post-injection,[11]; 30 mg/kg i.p.,increased mechanical paw withdrawal threshold
same,duration of efficacy post injection,[11]; 30 mg/kg i.p.,at least 2.5 h
same,suppression of CFA-induced mechanical allodynia in CB1KO mice,[11]; 30 mg/kg i.p.,Neither
same,anti-allodynic efficacy at 4 h post injection,[11]; 30 mg/kg i.p.,no longer present
same,paw withdrawal thresholds in the contralateral paw,[11],without altering paw withdrawal thresholds in the contralateral paw
same,doses that elevated mechanical paw withdrawal thresholds relative to vehicle,[11]; i.p.,3 to 30 mg/kg
Cc1c(C(=O)c2cccc3ccccc23)c2cccc3c2n1[C@H](CN1CCOCC1)CO3 [WIN],effect on IOP,[12]; topical 1% WIN,decreases IOP
same,effect on IOP,[12]; topical WIN […] (subthreshold),does not affect IOP
"O=[N+]([O-])CC(c1ccccc1)c1c(-c2cccnc2)[nH]c2ccccc12 (centres unmarked) [Compound 9d, 3-(2-Nitro-1-phenylethyl)-2-(pyridin-3-yl)-1H-indole]",solubility thermodynamic,[5],1.7 µg/mL
"O=[N+]([O-])CC(c1ccccn1)c1c(-c2ccccc2)[nH]c2ccccc12 (centres unmarked) [Compound 9a, 3-(2-Nitro-1-(pyridin-2-yl)ethyl)-2-phenyl-1H-indole]",solubility thermodynamic at 24 h,[5],1 µg/mL
"O=[N+]([O-])CC(c1cccnc1)c1c(-c2ccccc2)[nH]c2ccccc12 (centres unmarked) [Compound 9b, 3-(2-Nitro-1-(pyridin-3-yl)ethyl)-2-phenyl-1H-indole]",solubility thermodynamic,[5],0.4 µg/mL
"O=[N+]([O-])CC(c1ncccc1F)c1c(-c2ccccc2)[nH]c2ccccc12 (centres unmarked) [Compound 9j, 3-(1-(3-Fluoropyridin-2-yl)-2-nitroethyl)-2-phenyl-1H-indole]",hypothermia,[7],did not produce catalepsy or hypothermia
same,"change in IOP from baseline, 1 hour",[13]; 1 h,−2.5 ± 1 mmHg
same,"change in IOP from baseline, 6 hours",[13]; 6 h,−3.6 ± 1 mmHg
same,IOP decrease at 12 hours,[13]; 12 h,no longer present
same,catalepsy,[10],did not produce catalepsy
same,DSE response,[14],DSE was enhanced
"CCCCCCC(C)(C)c1ccc([C@@H]2C[C@H](O)CC[C@H]2CCCO)c(O)c1 [CP55,940, reference compound]","CP55,940 EMax, Vehicle (0)","[8]; CP55,940 without GAT compound, upper plateau",100 ± 6.4 % Forskolin
same,"Standard agonist EMax, PathHunter βarrestin2",[9]; standard agonist alone,8.0 ± 1.3 fold over baseline
same,"Standard agonist EMax, HitHunter cAMP",[4]; standard agonist alone,1.5 ± 0.07 fold over baseline
"O=[N+]([O-])CC(c1ccccc1)c1c(-c2ccccc2)[nH]c2cnccc12 (centres unmarked) [Compound 9h, 3-(2-Nitro-1-phenylethyl)-2-phenyl-1H-pyrrolo[2,3-c]pyridine]",solubility thermodynamic,[5],2.3 µg/mL
"O=[N+]([O-])CC(c1ccccc1)c1c(-c2ccccc2)[nH]c2ncccc12 (centres unmarked) [Compound 9i, 3-(2-Nitro-1-phenylethyl)-2-phenyl-1H-pyrrolo[2,3-b]pyridine]",solubility thermodynamic,[5],54.6 µg/mL
"O=[N+]([O-])CC(c1ccccc1)c1c(-c2ccncc2)[nH]c2ccccc12 (centres unmarked) [Compound 9e, 3-(2-Nitro-1-phenylethyl)-2-(pyridin-4-yl)-1H-indole]",solubility thermodynamic,[5],0.7 µg/mL
"O=[N+]([O-])CC(c1ccccc1)c1c(-c2ccccc2)[nH]c2ccncc12 (centres unmarked) [Compound 9g, 3-(2-Nitro-1-phenylethyl)-2-phenyl-1H-pyrrolo[3,2-c]pyridine]",solubility thermodynamic,[5],8.1 µg/mL
"O=[N+]([O-])CC(c1ccccc1F)c1c(-c2cccc(F)c2)[nH]c2cc(F)ccc12 (centres unmarked) [Compound 6r, 6-Fluoro-2-(3-fluorophenyl)-3-(1-(2-fluorophenyl)-2-nitroethyl)-1H-indole]",anti-nociceptive effect in the tail flick assay,[6],dose-dependent anti-nociceptive effect
same,hypothermia,[7],did not produce catalepsy or hypothermia
same,ΔEC50,[8],-12 ± 5.7 nM
same,ΔEMax,[8],68 ± 4.3 % Forskolin
same,"concentrations promoting CP55,940-dependent βarrestin2 recruitment",[9],≥ 0.19 µM
same,catalepsy,[10],did not produce catalepsy
same,PAM bias between cAMP inhibition and βarrestin2 recruitment (ΔΔLogR),[4],display bias toward cAMP inhibition
same,agonist bias between cAMP inhibition and βarrestin2 recruitment (ΔΔLogR),[4],agonist bias toward cAMP inhibition
same,mechanical paw withdrawal threshold at 30 min post-injection,[11]; 30 mg/kg i.p.,increased mechanical paw withdrawal threshold
same,duration of efficacy post injection,[11]; 30 mg/kg i.p.,at least 2.5 h
same,suppression of CFA-induced mechanical allodynia in CB1KO mice,[11]; 30 mg/kg i.p.,Neither
same,anti-allodynic efficacy at 4 h post injection,[11]; 30 mg/kg i.p.,no longer present
same,paw withdrawal thresholds in the contralateral paw,[11],without altering paw withdrawal thresholds in the contralateral paw
same,dose that maximally suppressed CFA-induced inflammatory pain,[11]; i.p.,30 mg/kg
same,doses that elevated mechanical paw withdrawal thresholds relative to vehicle,[11]; i.p.,3 to 30 mg/kg
